The target in one data set is human TRPA1 (Homo sapiens (Human), UniProt O75762). Description: Inhibition of human TRPA1 in whole cell patch configuration (10 μM AITC activation). Format: cell-based. The note with it: current activation 10 μM AITC, tested concentrations 320 pM to 3.2 μM, read-out: hTRPA1 IC50. As to the method:
Data for TRPA1 inhibition was obtained by this method for the indicated compounds of Formula (I), (II), or (III), with the relevant data included in Table 2 below. All currents were recorded in whole-cell configuration using EPC-9 and EPC-10 amplifiers and Patchmaster software (HEKA) or similar. […] The standard pipette solution consisted of 140 mM CsAsp, 10 mM EGTA, 10 mM HEPES, […], 1.91 mM CaCl2, and up to 0.3 mM Na2GTP, with pH adjusted to 7.2 with CsOH. In addition, a solution containing 145 mM CsCl, 10 mM HEPES, 10 mM EGTA, and up to 0.3 mM Na2GTP and 1 mM MgCl2 (pH 7.2 adjusted with CsOH) can be used. The standard bath solution contained 150 mM NaCl, 10 mM HEPES, 10 mM glucose, 4.5 mM KCl, 1 mM EGTA, 3 mM MgCl2, with pH adjusted to 7.4 with NaOH. In some instances, 2 mM CaCl2 was added in place of EGTA and the concentration of MgCl2 was reduced to 1 mM.
Data were collected either by continuous recordings at −60 mV or by applying voltage ramps from a holding potential of −40 mV every 4 s. Continuous recordings were collected at 400 Hz and digitally filtered off-line at 10 Hz for presentation. Voltage ramps were applied from −100 mV or −80 mV to +100 mV or +80 mV over the course of 400 ms, and data were collected at 10 kHz and filtered at 2.9 kHz. Inward and outward currents were analyzed from the ramps at −80 and 80 mV, respectively. Liquid junction potential correction was not used.
Solutions were switched using a gravity-fed continuous focal perfusion system. To achieve rapid temperature changes, two temperature control, and perfusion systems were employed simultaneously. For temperatures greater than or equal to 22° C., a Warner Instruments bipolar temperature controller (TC-344B) and inline heater (SHM-8) were used. For temperatures below 22° C. a Warner Instruments temperature controller (CL-100) and thermal cooling module (TCM-1) were used. Temperatures were confirmed using a thermistor (Warner Instruments, TA-29), with temperatures at the recorded cell estimated to be within +/−2° C. of those reported.
The antagonist effects of compounds of Formula (I), (II), or (III) against human TRPA1 (“hTRPA1”) in a whole cell patch configuration were evaluated using the in vitro assay described above. The current activation tested was 10 μM AITC, and the tested concentrations ranged from 320 pM to 3.2 μM.

Data set [1] is described as follows: Solubility in Normal Ringer Solution. The format is physicochemical. The note with it: saline or isotonic, kinetic from dmso stock, pH 7.4 at room temperature, 40 minutes incubation, from 10 mM DMSO stock. As for the experimental part: Compounds of the invention were also tested for solubility in Normal Ringer Solution. Briefly, compound solubility was determined by dissolving a standard range of volumes of 10 mM DMSO stock of compounds in Normal Ringer Solution (pH 7.4 at room temperature). Following vortex and incubation for 40 minutes at room temperature, solutions were filtered, quenched with acetonitrile, and analyzed by Liquid Chromatography. Solubility limits were determined by comparison to a standard curve. […] Solubility is reported as “greater than” if the observed increase between the last 2 dilutions tested is greater than 2-fold.

The values that follow come from patent publication US11161849B2, “Inhibiting the transient receptor potential al ion channel” (Eli Lilly and Company, priority 2018, dated 2021).

SMILES strings stand for the structures.

human TRPA1, sequence (O75762 whole entry): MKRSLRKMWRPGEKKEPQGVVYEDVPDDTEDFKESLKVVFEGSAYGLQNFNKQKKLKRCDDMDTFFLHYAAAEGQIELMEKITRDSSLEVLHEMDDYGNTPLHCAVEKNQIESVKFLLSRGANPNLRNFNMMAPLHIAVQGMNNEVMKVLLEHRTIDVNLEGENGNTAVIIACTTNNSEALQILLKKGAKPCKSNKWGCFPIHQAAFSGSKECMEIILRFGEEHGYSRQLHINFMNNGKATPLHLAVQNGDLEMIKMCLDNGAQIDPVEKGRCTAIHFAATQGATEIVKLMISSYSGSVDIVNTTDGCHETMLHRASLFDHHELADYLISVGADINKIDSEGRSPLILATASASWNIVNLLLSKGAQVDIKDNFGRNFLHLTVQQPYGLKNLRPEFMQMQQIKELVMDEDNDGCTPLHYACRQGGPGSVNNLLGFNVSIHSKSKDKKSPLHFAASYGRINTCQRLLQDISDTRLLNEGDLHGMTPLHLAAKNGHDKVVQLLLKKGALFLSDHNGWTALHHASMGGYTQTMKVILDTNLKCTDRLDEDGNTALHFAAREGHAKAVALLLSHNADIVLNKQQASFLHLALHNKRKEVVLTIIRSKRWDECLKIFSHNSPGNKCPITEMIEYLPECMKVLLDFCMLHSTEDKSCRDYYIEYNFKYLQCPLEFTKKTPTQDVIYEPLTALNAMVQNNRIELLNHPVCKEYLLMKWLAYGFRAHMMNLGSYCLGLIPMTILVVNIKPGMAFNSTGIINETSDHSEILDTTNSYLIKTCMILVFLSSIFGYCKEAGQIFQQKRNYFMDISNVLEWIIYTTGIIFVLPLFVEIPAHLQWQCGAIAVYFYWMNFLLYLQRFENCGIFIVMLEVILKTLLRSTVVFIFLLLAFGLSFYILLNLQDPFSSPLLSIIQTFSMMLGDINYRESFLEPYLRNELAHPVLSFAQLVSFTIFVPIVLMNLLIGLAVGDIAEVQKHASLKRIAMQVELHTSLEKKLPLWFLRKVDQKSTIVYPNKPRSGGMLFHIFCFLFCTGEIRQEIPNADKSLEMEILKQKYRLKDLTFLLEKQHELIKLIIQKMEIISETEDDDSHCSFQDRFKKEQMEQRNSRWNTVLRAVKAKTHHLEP

`Cc1noc(Cn2c(=O)[nH]c3ncn(C(C)C(=O)Nc4cncc(-c5cnc(C(F)(F)F)nc5)n4)c3c2=O)n1` (centres unmarked) [Compound 100]: at human TRPA1, the IC50 is greater than 10000 nM. Besides, the solubility at 40 min in data set [1] is greater than 31.3 µM.

For the molecule `Cc1noc(Cn2c(=O)[nH]c3ncn(C(C)C(=O)Nc4cccc(-c5cnc(C(F)(F)F)nc5)n4)c3c2=O)n1` (centres unmarked) [Compound 101], the IC50 at human TRPA1 was 559 nM. The molecule further gave a solubility at 40 min in data set [1] greater than 31.3 µM. With `CC(=O)NC(=O)Cn1c(=O)c2c(ncn2[C@@H](C)C(=O)Nc2cncc(-c3cnc(C(F)(F)F)nc3)n2)n(C)c1=O` [Compound 102], at human TRPA1, the IC50 worked out at 172 nM. Further, in data set [1], the solubility at 40 min is greater than 31.3 µM. Regarding `CC(=O)NC(=O)Cn1c(=O)c2c(ncn2[C@@H](C)C(=O)Nc2cccc(-c3cnc(C(F)(F)F)nc3)n2)n(C)c1=O` [Compound 103], at human TRPA1, the 50% inhibitory concentration (IC50) is 47.6 nM. The solubility at 40 min in data set [1] is greater than 31.3 µM. In the same order, the values of `C[C@@H](C(=O)Nc1cncc(-c2cnc(C(F)(F)F)nc2)n1)n1cnc2c1c(=O)n(CC(N)=O)c(=O)n2C` [Compound 104] are 7090 nM and greater than 31.3 µM. `C[C@@H](C(=O)Nc1cccc(-c2cnc(C(F)(F)F)nc2)n1)n1cnc2c1c(=O)n(CC(N)=O)c(=O)n2C` [Compound 105]: on human TRPA1, the IC50 was 566 nM. Moreover, the solubility at 40 min in data set [1] is greater than 31.3 µM. Consider `[2H]C([2H])([2H])n1c(=O)n(Cc2nc(C)no2)c(=O)c2c1ncn2C(C)C(=O)Nc1cncc(-c2cnc(C(F)(F)F)nc2)n1` (centres unmarked) [Compound 106], for which the solubility at 40 min in data set [1] is greater than 31.3 µM. The same measure, in the same setting: the value for `[2H]C([2H])([2H])n1c(=O)n(Cc2nc(C)no2)c(=O)c2c1ncn2C(C)C(=O)Nc1cccc(-c2cnc(C(F)(F)F)nc2)n1` (centres unmarked) [Compound 107] was greater than 31.3 µM.
